Data from PubChem BioAssay AID256 (DTP/NCI, 2004).
Values joined by “and” are separate entries in the source; they are usually repeats but may differ in a detail not shown here. Equal entries are not always repeated. Inconclusive results and toxic doses are left out. Rule for the calls: active = survival T/C of 150% or more; inactive = T/C below 125% in these data.

Test system: CD2F1 mice, L1210 leukemia ip, survival T/C
Assay: NCI In Vivo Anticancer Drug Screen. Data for tumor model L1210 Leukemia (intraperitoneal) in CD2F1 (CDF1) mice
Conditions: endpoint: mean survival time, higher = longer survival
How it was run: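 Transplantable tumor in mice; compound-treated vs vehicle-treated groups. Read-out = treated/control ratio of the measured endpoint.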

Measured: T/C

CN(C)/N=N/c1nc[nH]c1C(N)=O
active: dose: 67.0 mg/kg/injection, schedule: Q01DX009 (ip), vehicle: carboxymethylcellulose (CMC) 160 % of control | dose: 97.0 mg/kg/injection, schedule: Q01DX009 (ip), vehicle: carboxymethylcellulose (CMC) 154 % of control | dose: 100.0 mg/kg/injection, schedule: Q01DX009 (ip), vehicle: carboxymethylcellulose (CMC) 160 % of control
inactive: dose: 1.56 mg/kg/injection, schedule: Q03HX024 (ip), vehicle: steriod suspending solution 105 % of control | dose: 1.56 mg/kg/injection, schedule: Q03HX024 (oral), vehicle: steriod suspending solution 105 % of control | dose: 2.9 mg/kg/injection, schedule: Q01DX009 (ip), vehicle: Klucel (hydroxypropylcellulose) (HPC) 103 % of control | dose: 3.12 mg/kg/injection, schedule: Q03HX024 (ip), vehicle: steriod suspending solution 115 % of control | dose: 3.12 mg/kg/injection, schedule: Q03HX024 (oral), vehicle: steriod suspending solution 107 % of control | dose: 5.7 mg/kg/injection, schedule: Q01DX009 (ip), vehicle: Klucel (hydroxypropylcellulose) (HPC) 108 % of control | dose: 6.25 mg/kg/injection, schedule: Q03HX016 (ip), vehicle: steriod suspending solution 107 % of control | dose: 6.25 mg/kg/injection, schedule: Q03HX016 (oral), vehicle: steriod suspending solution 110 % of control | dose: 6.25 mg/kg/injection, schedule: Q03HX024 (oral), vehicle: steriod suspending solution 104 % of control | dose: 11.4 mg/kg/injection, schedule: Q01DX009 (ip), vehicle: Klucel (hydroxypropylcellulose) (HPC) 104 % of control and 105 % of control | dose: 12.5 mg/kg/injection, schedule: Q01DX001 (ip), vehicle: distilled water + Tween-80 104 % of control and 105 % of control | dose: 12.5 mg/kg/injection, schedule: Q03HX016 (ip), vehicle: steriod suspending solution 109 % of control | dose: 12.5 mg/kg/injection, schedule: Q03HX016 (oral), vehicle: steriod suspending solution 109 % of control | dose: 12.5 mg/kg/injection, schedule: Q03HX024 (ip), vehicle: steriod suspending solution 116 % of control | dose: 22.7 mg/kg/injection, schedule: Q01DX009 (ip), vehicle: Klucel (hydroxypropylcellulose) (HPC) 115 % of control and 110 % of control | dose: 25.0 mg/kg/injection, schedule: Q01DX001 (ip), vehicle: distilled water + Tween-80 103 % of control and 104 % of control | dose: 25.0 mg/kg/injection, schedule: Q01DX009 (ip), vehicle: DMSO 110 % of control | dose: 25.0 mg/kg/injection, schedule: Q01DX009 (ip), vehicle: saline 117 % of control | dose: 25.0 mg/kg/injection, schedule: Q01DX009 (ip), vehicle: water 113 % of control | dose: 25.0 mg/kg/injection, schedule: Q03HX016 (oral), vehicle: steriod suspending solution 110 % of control | dose: 25.0 mg/kg/injection, schedule: Q03HX024 (ip), vehicle: steriod suspending solution 118 % of control | dose: 25.0 mg/kg/injection, schedule: Q03HX024 (oral), vehicle: steriod suspending solution 122 % of control | dose: 25.0 mg/kg/injection, schedule: Q04DX003 (ip), vehicle: other 110 % of control | dose: 25.0 mg/kg/injection, schedule: Q04DX003 (ip), vehicle: water 105 % of control | dose: 45.5 mg/kg/injection, schedule: Q01DX009 (ip), vehicle: Klucel (hydroxypropylcellulose) (HPC) 115 % of control and 123 % of control | dose: 50.0 mg/kg/injection, schedule: Q01DX001 (ip), vehicle: distilled water + Tween-80 113 % of control and 106 % of control | dose: 50.0 mg/kg/injection, schedule: Q01DX005 (ip), vehicle: other 117 % of control | dose: 50.0 mg/kg/injection, schedule: Q01DX009 (ip), vehicle: DMSO 120 % of control | dose: 50.0 mg/kg/injection, schedule: Q01DX009 (ip), vehicle: saline 116 % of control | dose: 50.0 mg/kg/injection, schedule: Q01DX009 (ip), vehicle: steriod suspending solution 115 % of control | dose: 50.0 mg/kg/injection, schedule: Q03DX003 (ip), vehicle: saline 110 % of control | dose: 50.0 mg/kg/injection, schedule: Q03HX016 (ip), vehicle: steriod suspending solution 115 % of control | dose: 50.0 mg/kg/injection, schedule: Q03HX016 (oral), vehicle: steriod suspending solution 105 % of control | dose: 50.0 mg/kg/injection, schedule: Q04DX003 (ip), vehicle: Klucel (hydroxypropylcellulose) (HPC) 103 % of control | dose: 50.0 mg/kg/injection, schedule: Q04DX003 (ip), vehicle: other 114 % of control | dose: 50.0 mg/kg/injection, schedule: Q04DX003 (ip), vehicle: saline 105 % of control | dose: 50.0 mg/kg/injection, schedule: Q04DX003 (ip), vehicle: water 117 % of control | dose: 60.0 mg/kg/injection, schedule: Q04DX003 (ip), vehicle: saline 88 % of control and 108 % of control | dose: 80.0 mg/kg/injection, schedule: Q04DX003 (ip), vehicle: saline 92 % of control and 106 % of control | dose: 91.0 mg/kg/injection, schedule: Q01DX009 (ip), vehicle: Klucel (hydroxypropylcellulose) (HPC) 121 % of control | dose: 100.0 mg/kg/injection, schedule: Q01DX001 (ip), vehicle: distilled water + Tween-80 114 % of control and 117 % of control
